# Patent US5389621A, “Method of enhancing the anticoagulant effects of aspirin using salicylamide” (University of Medicine and Dentistry of New Jersey, priority 1994, dated 1995)
# What was measured:
# [1] = Tissue distribution of 14C radioactivity after 14C-aspirin; assay type: in vivo, male Sprague-Dawley rats; settings: for Tissue with the highest 14C concentration: 14C-ASA alone or with SAM, low dose
# Method: Male adult Sprague-Dawley rats (300-325 gm) obtained from Charles River Breeding Laboratory, N. Wilmington, Mass. were quarantined for one week. All animals were identified by ear punching. Food and water were provided ad libitum. The animals were maintained on rodent lab chow diet in a controlled environment with 50% humidity and 12 hour light/dark cycle.
# Forty-eight rats were divided into two groups. The first group of rats was administered ASA, SAM or their combination in a dose approximately equal (w/w) to that in the commercially available combinations, e.g., BC® formula, when administered to humans, i.e., 10 and 3 mg/kg of ASA and SAM, respectively. The second group was administered double the dosage received by the first group.
# Each group consisted of 24 rats and was further divided into 4 subgroups, 6 rats each, according to the following scheme:
# The rats were fasted overnight. The drug(s) were prepared fresh, dissolved in 2.5 ml of deionized water and administered orally by gavage needle. The rats were allowed water ad libitum before and after the oral administration.
# The different treatments were given according to the previous scheme and each rat received an amount of radioactivity equal to […] in the case of radioactive aspirin and 10 μCu in the case of radioactive salicylamide.
# The rats were anesthetized by light diethyl ether inhalation. A blood sample of nearly 3 ml was collected by cardiac puncture 1.5 hours after oral administration. The blood was transferred to chilled polyethylene tubes containing 30 μl of 50% (w/w) potassium fluoride to prevent hydrolysis of ASA. A 300 μl aliquot was pipetted in a scintillation vial to study the distribution in whole blood. The rest of the collected blood was immediately centrifuged at 1800×g for 10 minutes at 4° C. and the plasma was decanted. 100 μl of the plasma were pipetted in a scintillation vial for measurement of the total radioactivity and the rest of the plasma was stored immediately at -70° C. for later study of the distribution of the metabolites.
# 300 μl of the pellet of red blood cells was pipetted in a scintillation vial to study the distribution in red blood cells. The rest of the red blood cells were washed twice by adding 2 ml of physiological saline and were resuspended after each addition.
# After collecting the blood sample, the rats were sacrificed immediately by a diethyl ether overdose. The following tissues were collected: liver, lung, kidney, heart, spleen, perinephric fat, brain, upper small intestine, stomach, pancreas, bone (femur and tibia), testis, skin and skeletal muscle. A sample of bone marrow was also collected (approximately20 mg).
# 300 mg tissue samples were placed in scintillation vials and 300 μl of 70% perchloric acid and 600 μl of 30% hydrogen peroxide were added to each vial and also to the vials containing the washed red blood cells aliquots. The vials were incubated at 75° C. for 1 hour in a shaking water bath and were tightly capped to prevent any loss of radioactivity by evaporation.
# The vials were left to cool to room temperature for 15 minutes before 10 ml Aquasol-2 scintillation fluid was added to each vial. The total radioactivity was counted in a Beckman model 7500 LS spectrophotometer.
# [2] = tested on: vascular cyclooxygenase; assay: 6-keto PG F1alpha production from thoracic aortic rings ex vivo; assay type: in vivo, male Sprague-Dawley rats
# Method: The method used was a modification of that used by Dejana et al. (1981). Male Sprague-Dawley rats were randomly treated with either ASA (10 mg/kg), SAM (9 mg/kg), ASA/SAM (10/9 mg/kg), or isotonic saline. The rats were fasted overnight before administration of the treatments. Half an hour following treatment, the rats were exsanguinated by heart puncture under ether anesthesia and the thoracic aorta was immediately isolated, cleaned of adventitia, and flushed in situ with 5 ml of isotonic saline. The vessel was then removed and 2 rings (each was nearly 7 mg wet weight corresponding to 0.5 cm length) were cut from the middle part. The rings were immediately incubated in 160 μl of Krebs-Hanseleit buffer solution adjusted to pH 7.4 and containing AA (final concentration 4.3 mM) in polyethylene tubes. The tubes were incubated at 37° C. in a shaking water bath for 10 minutes. The reaction was terminated by the addition of 40 μl of EDTA/ASA solution and the tubes were centrifuged at 1800× g for 15 minutes at 4° C. 100 μl of the supernatant were used for the measurement of 6-keto PG F1alpha content as an indicator of its unstable precursor, PG I2. A specific radioimmunoassay (Amersham International) (vide infra) was employed.
# Radioimmunoassay Procedure for Measurement of Thromboxane B2 and 6-keto PG F1alpha
# The procedure described below is for thromboxane A2. A similar procedure was used for 6-keto PG F1alpha measurement.
# One way ANOVA followed by Scheffe multiple range test was employed for treatment comparisons. The accepted level of significance was p<0.05.
# [3] = 1.5 hr, 14C-ASA 10 mg/kg, alone or with SAM 3 mg/kg
# [4] = 1.5 hr, 14C-ASA 20 mg/kg, alone or with SAM 6 mg/kg
smiles,measurement,setting,value
CC(=O)Oc1ccccc1[14C](=O)O [^14 C-ASA],14C radioactivity in RBCs,[1]; [3],4.2 ± 1.2 μg/gm tissue
same,14C radioactivity in blood,[1]; [3],17.1 ± 3.1 μg/gm tissue
same,14C radioactivity in bone,[1]; [3],2.7 ± 0.08 μg/gm tissue
same,14C radioactivity in bone marrow,[1]; [3],0.24 ± 0.05 μg/50 mg of bone marrow
same,14C radioactivity in brain,[1]; [3],1.5 ± 0.1 μg/gm tissue
same,14C radioactivity in fat,[1]; [3],3.3 ± 0.1 μg/gm tissue
same,14C radioactivity in heart,[1]; [3],5.6 ± 0.5 μg/gm tissue
same,14C radioactivity in kidney,[1]; [3],15.1 ± 0.9 μg/gm tissue
same,14C radioactivity in liver,[1]; [3],7.9 ± 0.9 μg/gm tissue
same,14C radioactivity in lung,[1]; [3],7.3 ± 0.5 μg/gm tissue
same,14C radioactivity in muscle,[1]; [3],3.5 ± 0.2 μg/gm tissue
same,14C radioactivity in pancreas,[1]; [3],5.7 ± 0.4 μg/gm tissue
same,14C radioactivity in plasma,[1]; [3],35.5 ± 1.7 μg/gm tissue
same,14C radioactivity in skin,[1]; [3],8.9 ± 0.4 μg/gm tissue
same,14C radioactivity in spleen,[1]; [3],2.9 ± 0.6 μg/gm tissue
same,14C radioactivity in stomach,[1]; [3],18.9 ± 3.3 μg/gm tissue
same,14C radioactivity in testis,[1]; [3],5.1 ± 0.5 μg/gm tissue
same,14C radioactivity in upper small intestine,[1]; [3],5.8 ± 0.6 μg/gm tissue
same,14C radioactivity in washed RBCs,[1]; [3],1.5 ± 0.5 μg/gm tissue
same,14C radioactivity in RBCs,[1]; [4],8.8 ± 1.2 μgm/gm tissue
same,14C radioactivity in blood,[1]; [4],36.1 ± 3.5 μgm/gm tissue
same,14C radioactivity in bone,[1]; [4],7.1 ± 0.6 μgm/gm tissue
same,14C radioactivity in bone marrow,[1]; [4],0.79 ± 0.03 μgm/50 mg bone marrow
same,14C radioactivity in brain,[1]; [4],4.1 ± 0.07 μgm/gm tissue
same,14C radioactivity in fat,[1]; [4],4.5 ± 0.3 μgm/gm tissue
same,14C radioactivity in heart,[1]; [4],17.5 ± 0.5 μgm/gm tissue
same,14C radioactivity in kidney,[1]; [4],32.0 ± 3.2 μgm/gm tissue
same,14C radioactivity in liver,[1]; [4],19.7 ± 0.9 μgm/gm tissue
same,14C radioactivity in lung,[1]; [4],19.3 ± 0.7 μgm/gm tissue
same,14C radioactivity in muscle,[1]; [4],9.5 ± 0.4 μgm/gm tissue
same,14C radioactivity in pancreas,[1]; [4],12.6 ± 0.5 μgm/gm tissue
same,14C radioactivity in plasma,[1]; [4],65.1 ± 1.91 μgm/gm tissue
same,14C radioactivity in skin,[1]; [4],21.9 ± 0.6 μgm/gm tissue
same,14C radioactivity in spleen,[1]; [4],10.0 ± 0.9 μgm/gm tissue
same,14C radioactivity in stomach,[1]; [4],22.9 ± 4.6 μgm/gm tissue
same,14C radioactivity in testis,[1]; [4],14.1 ± 0.6 μgm/gm tissue
same,14C radioactivity in upper small intestine,[1]; [4],15.1 ± 1.0 μgm/gm tissue
same,14C radioactivity in washed RBCs,[1]; [4],3.8 ± 0.9 μgm/gm tissue
same,Tissue with the highest 14C concentration,[1]; 1.5 hr,plasma attained the highest concentration
"NC(=O)c1ccccc1O [SAM, Salicylamide]",Inhibition of PG I2 (6-keto PG F1alpha) / vascular cyclooxygenase,"[2]; ASA 10 mg/kg or SAM 9 mg/kg, rat thoracic aortic rings ex vivo","partially, but still significantly, block vascular cyclooxygenase activity"
same,Potentiation of ASA inhibitory effect on vascular cyclooxygenase,"[2]; SAM with ASA, ex vivo",significant potentiation
same,"Change of 14C distribution in plasma, skin, testis and brain",[1]; 14C-ASA 20 mg/kg with SAM 6 mg/kg vs 14C-ASA alone,significant increase
same,Tissue with the highest 14C concentration,[1]; 1.5 hr,plasma attained the highest concentration
same,Change of 14C activity in stomach (gastric mucosa),"[1]; 1.5 hr, 14C-ASA/SAM 10/3 mg/kg vs 14C-ASA 10 mg/kg",lower concentration of ^14 C radioactivity
same,"Change of 14C radioactivity and 14C-SA in plasma, liver and lung",[1]; SAM with 14C-ASA,discernable and parallel increase
